Where a SMILES comes first, the peptide text is derived from it. [ ]: non-standard residue; d: D form. The star is where a group is joined. Nle = CCCC[C@H](N)C(=O)O; Bz = O=C(c1ccccc1)*
How the values were obtained:
[1] = tested on: cultured rat pituitary cells; experiment: secretion of ACTH and β-endorphin by cultured rat pituitary cells in vitro; format: cell-based; conditions: in vitro
Excerpt: (§1) The synthetic and the natural rCRF were examined for their effects on the secretion of ACTH and β-endorphin in vitro and the synthetic rCRF was also examined in vivo.

[2] = tested on: ACTH and β-endorphin-like (β-END-LI) secretion; experiment: ACTH and β-END-LI secretion in vivo after intravenous administration; set-up: species or system rats; conditions: for stimulation of secretion of ACTH and β-END-LI: general procedure of Example III, in vitro or in vivo not stated
Excerpt: as §1

[3] = lowering of blood pressure in rats; format: in vivo; conditions: for lowering of blood pressure: species not given, general procedure of Example III; for lowering of blood pressure compared with rCRF: relative to rCRF, species not stated
[4] = mammals; reported; cited from earlier work
[5] = tested on: secretion of ACTH and β-endorphin; conditions: reported; cited from earlier work

Row | Compound | stimulation of secretion of ACTH and β-END-LI [2] | lowering of blood pressure [3] | also measured
1 | CC[C@H](C)[C@H](NC(=O)[C@@H](NC(=O)[C@H](CCC(=O)O)NC(=O)[C@H](CCSC)NC(=O)[C@H](CC(C)C)NC(=O)[C@H](CCCCN)NC(=O)[C@H](CCCNC(=N)N)NC(=O)[C@H](CC(N)=O)NC(=O)[C@H](CO)NC(=O)[C@H](Cc1c[nH]cn1)NC(=O)[C@H](C)NC(=O)[C@H](CCC(N)=O)NC(=O)[C@H](CCC(N)=O)NC(=O)[C@H](C)NC(=O)[C@H](CC(C)C)NC(=O)[C@H](CCC(N)=O)NC(=O)[C@H](CCC(=O)O)NC(=O)[C@H](C)NC(=O)[C@H](CCCNC(=N)N)NC(=O)[C@H](C)NC(=O)[C@H](CCSC)NC(=O)[C@H](CCC(=O)O)NC(=O)[C@H](CC(C)C)NC(=O)[C@@H](NC(=O)[C@H](CCC(=O)O)NC(=O)[C@H](CCCNC(=N)N)NC(=O)[C@H](CC(C)C)NC(=O)[C@H](CC(C)C)NC(=O)[C@H](Cc1c[nH]cn1)NC(=O)[C@H](Cc1ccccc1)NC(=O)[C@@H](NC(=O)[C@H](CC(C)C)NC(=O)[C@H](CC(=O)O)NC(=O)[C@H](CC(C)C)NC(=O)[C@H](CO)NC(=O)[C@@H](NC(=O)[C@@H]1CCCN1C(=O)[C@@H]1CCCN1C(=O)[C@H](CCC(=O)O)NC(=O)[C@H](CCC(=O)O)NC(=O)[C@@H](N)CO)[C@@H](C)CC)[C@@H](C)O)C(C)C)[C@@H](C)CC)C(N)=O [natural rCRF] |  |  | stimulation of secretion of ACTH and β-endorphin in vitro [1]: high potency; stimulation of secretion of ACTH and β-endorphin in vitro ([1]; listed as isolated rCRF): stimulate ACTH and β-endorphin activies; stimulation of ACTH and β-END-LI secretion in vivo (words) ([2]; in vivo, several rat preparations, listed as isolated rCRF): stimulate ACTH and β-endorphin activies
2 | H-SEEPPISLDLTFHLLREVLEAARAEQLAQQAHSNRKLLEI[Nle]-NH2 [XI] | stimulates the secretion of ACTH and β-END-LI | very significant lowering of blood pressure | 
3 | H-SEEPPISLDLTFHLLREVAEMTRAEQLAQQAHSNRKLMEII-NH2 [VII] | stimulates the secretion of ACTH and β-END-LI | very significant lowering of blood pressure | 
4 | H-SQEPPISLDLTFHLLREVLEMAKAEQLAQQAHSNRKLLEII-NH2 [XIV] | stimulates the secretion of ACTH and β-END-LI | very significant lowering of blood pressure | 
5 | CC[C@H](C)[C@H](NC(=O)[C@@H](NC(=O)[C@H](CC(=O)O)NC(=O)[C@H](CC(C)C)NC(=O)[C@H](CC(C)C)NC(=O)[C@H](CC(C)C)NC(=O)[C@H](CCCNC(=N)N)NC(=O)[C@H](CC(N)=O)NC(=O)[C@H](CC(N)=O)NC(=O)[C@H](C)NC(=O)[C@H](C)NC(=O)[C@H](CCC(N)=O)NC(=O)[C@H](CCC(N)=O)NC(=O)[C@H](CCCCN)NC(=O)[C@H](CCC(=O)O)NC(=O)[C@H](CCCCN)NC(=O)[C@H](CCC(=O)O)NC(=O)[C@H](CCC(N)=O)NC(=O)[C@H](CCCCN)NC(=O)[C@H](CCCNC(=N)N)NC(=O)[C@H](C)NC(=O)[C@H](CCC(=O)O)NC(=O)[C@@H](NC(=O)[C@H](CCSC)NC(=O)[C@H](CCCCN)NC(=O)[C@H](CCCNC(=N)N)NC(=O)[C@H](CC(C)C)NC(=O)[C@H](CC(C)C)NC(=O)[C@H](CCC(=O)O)NC(=O)[C@H](CC(C)C)NC(=O)[C@H](CO)NC(=O)[C@H](CC(C)C)NC(=O)[C@H](CC(=O)O)NC(=O)[C@@H](NC(=O)[C@H](CO)NC(=O)[C@@H](NC(=O)[C@@H]1CCCN1C(=O)[C@@H]1CCCN1C(=O)CNC(=O)[C@@H]1CCC(=O)N1)[C@@H](C)CC)[C@@H](C)CC)[C@@H](C)CC)[C@@H](C)CC)C(N)=O [XVII] | stimulates the secretion of ACTH and β-END-LI | very significant lowering of blood pressure | 
6 | CC[C@H](C)[C@H](NC(=O)[C@@H](NC(=O)[C@H](CC(=O)O)NC(=O)[C@H](CC(C)C)NC(=O)[C@H](CC(C)C)NC(=O)[C@H](CC(C)C)NC(=O)[C@H](CCCNC(=N)N)NC(=O)[C@H](CC(N)=O)NC(=O)[C@H](CC(N)=O)NC(=O)[C@H](C)NC(=O)[C@H](C)NC(=O)[C@H](CCC(N)=O)NC(=O)[C@H](CCC(N)=O)NC(=O)[C@H](CCCCN)NC(=O)[C@H](CCC(=O)O)NC(=O)[C@H](CCCCN)NC(=O)[C@H](CCC(=O)O)NC(=O)[C@H](CCC(N)=O)NC(=O)[C@H](CCCCN)NC(=O)[C@H](CCC(=O)O)NC(=O)[C@@H](NC(=O)[C@H](CCC(=O)O)NC(=O)[C@@H](NC(=O)[C@H](CCSC)NC(=O)[C@H](CCCCN)NC(=O)[C@H](CCCNC(=N)N)NC(=O)[C@H](CC(C)C)NC(=O)[C@H](CC(C)C)NC(=O)[C@H](CCC(=O)O)NC(=O)[C@H](CC(C)C)NC(=O)[C@H](CO)NC(=O)[C@H](CC(C)C)NC(=O)[C@H](CC(=O)O)NC(=O)[C@@H](NC(=O)[C@H](CO)NC(=O)[C@@H](NC(=O)[C@@H]1CCCN1C(=O)[C@@H]1CCCN1C(=O)CNC(=O)[C@@H]1CCC(=O)N1)[C@@H](C)CC)[C@@H](C)CC)[C@@H](C)CC)[C@@H](C)CC)[C@@H](C)O)C(N)=O [Sauvagine] |  |  | biological activity in lowering blood pressure [4]: biological activity in lowering blood pressure in mammals; biological activity in stimulating the secretion of ACTH and β-endorphin [5]: stimulating the secretion of ACTH and β-endorphin
7 | CC[C@H](C)[C@H](NC(=O)[C@@H](NC(=O)[C@H](CC(=O)O)NC(=O)[C@H](CCSC)NC(=O)[C@H](CC(C)C)NC(=O)[C@H](CC(C)C)NC(=O)[C@H](CCCNC(=N)N)NC(=O)[C@H](CC(N)=O)NC(=O)[C@H](CC(N)=O)NC(=O)[C@H](C)NC(=O)[C@H](C)NC(=O)[C@H](CCC(N)=O)NC(=O)[C@H](CCC(N)=O)NC(=O)[C@H](CCCCN)NC(=O)[C@H](CC(C)C)NC(=O)[C@H](CCCCN)NC(=O)[C@H](CCC(=O)O)NC(=O)[C@H](CCC(N)=O)NC(=O)[C@H](CCCCN)NC(=O)[C@H](CCC(=O)O)NC(=O)[C@@H](NC(=O)[C@H](CCC(=O)O)NC(=O)[C@@H](NC(=O)[C@H](CCSC)NC(=O)[C@H](CCCCN)NC(=O)[C@H](CCCNC(=N)N)NC(=O)[C@H](CC(C)C)NC(=O)[C@H](CC(C)C)NC(=O)[C@H](CCC(=O)O)NC(=O)[C@H](CC(C)C)NC(=O)[C@H](CO)NC(=O)[C@H](CC(C)C)NC(=O)[C@H](CC(=O)O)NC(=O)[C@@H](NC(=O)[C@H](CO)NC(=O)[C@@H](NC(=O)[C@@H]1CCCN1C(=O)[C@@H]1CCCN1C(=O)CNC(=O)[C@@H]1CCC(=O)N1)[C@@H](C)CC)[C@@H](C)CC)[C@@H](C)CC)[C@@H](C)CC)[C@@H](C)O)C(N)=O [XVIII] | stimulates the secretion of ACTH and β-END-LI | very significant lowering of blood pressure | 
8 | H-Ser-Gln-Glu-Pro-Pro-Ile-Ser-Leu-Asp-Leu-Thr-Phe-His-Leu-Leu-Arg-Glu-Val-Leu-Glu-Met-Thr-Lys-Ala-Asp-Gln-Leu-Ala-Gln-Gln-Ala-His-Ser-Asn-Arg-Lys-Leu- Leu-Asp-Ile-Ala-NH2 (H-SQEPPISLDLTFHLLREVLEMTKADQLAQQAHSNRKLLDIA-NH2) [oCRF, ovine corticotropin releasing factor characterized in 1981] |  |  | biological activity in lowering blood pressure [4]: biological activity in lowering blood pressure in mammals; biological activity in stimulating the secretion of ACTH and β-endorphin [5]: stimulating the secretion of ACTH and β-endorphin
9 | H-PPISIDLSLELLRKMIEIAKQEKEKQQAANNRLLMDTI-NH2 [XVI] | stimulates the secretion of ACTH and β-END-LI | very significant lowering of blood pressure | 
10 | Ac-PPISLDLTFHLLREVLEMARAEQLAQQAHSNRKLMDII-NH2 [XIII] | stimulates the secretion of ACTH and β-END-LI | very significant lowering of blood pressure | lowering of blood pressure compared with rCRF [3]: to a greater extent than rCRF
11 | CCCC[C@H](NC(=O)[C@@H](NC(=O)[C@H](CC(C)C)NC(=O)[C@H](CC(=O)O)NC(=O)[C@H](CC(C)C)NC(=O)[C@H](CO)NC(=O)[C@@H](NC(=O)[C@@H]1CCCN1C(=O)[C@@H]1CCCN1C(=O)[C@H](CCC(=O)O)NC(=O)CNC(=O)c1ccccc1)[C@@H](C)CC)[C@@H](C)O)C(=O)N[C@@H](Cc1c[nH]cn1)C(=O)N[C@@H](CC(C)C)C(=O)N[C@@H](CC(C)C)C(=O)N[C@@H](CCCNC(=N)N)C(=O)N[C@@H](CCC(=O)O)C(=O)N[C@H](C(=O)N[C@@H](CC(C)C)C(=O)N[C@@H](CCC(=O)O)C(=O)N[C@@H](CCSC)C(=O)N[C@@H](C)C(=O)N[C@@H](CCCNC(=N)N)C(=O)N[C@@H](C)C(=O)N[C@@H](CCC(=O)O)C(=O)N[C@@H](CCC(N)=O)C(=O)N[C@@H](CC(C)C)C(=O)N[C@@H](C)C(=O)N[C@@H](CCC(N)=O)C(=O)N[C@@H](CCC(N)=O)C(=O)N[C@@H](C)C(=O)N[C@@H](Cc1c[nH]cn1)C(=O)N[C@@H](CO)C(=O)N[C@@H](CC(N)=O)C(=O)N[C@@H](CCCNC(=N)N)C(=O)N[C@@H](CCCCN)C(=O)N[C@@H](CC(C)C)C(=O)N[C@@H](CCSC)C(=O)N[C@@H](CCC(=O)O)C(=O)N[C@H](C(=O)N[C@H](C(N)=O)[C@@H](C)CC)[C@@H](C)CC)C(C)C [XII] (Bz-GEPPISLDLT[Nle]HLLREVLEMARAEQLAQQAHSNRKLMEII-NH2) | stimulates the secretion of ACTH and β-END-LI | very significant lowering of blood pressure | 
12 | H-SEEPPISLDLTFHLLREVLE[Nle]ARAEQLAQQAYSNRKLMEII-NH2 [XV] | stimulates the secretion of ACTH and β-END-LI | very significant lowering of blood pressure | lowering of blood pressure compared with rCRF [3]: to a greater extent than rCRF
13 | H-SEEPPIS[Nle]DLSFHLLREVLEMARAEQLAQQAHLNRKLMEII-NH2 [X] | stimulates the secretion of ACTH and β-END-LI | very significant lowering of blood pressure | 
14 | H-SEEPPISLDLTFELLREVLEVARAEQLAQQAHSNRKLMEII-NH2 [IX] | stimulates the secretion of ACTH and β-END-LI | very significant lowering of blood pressure | lowering of blood pressure compared with rCRF [3]: to a great extent than rCRF
